Reference: patent US8809545B2, “Aryl pyridine as aldosterone synthase inhibitors” (Novartis AG, priority 2009, dated 2014)

Key:
[1] = target: T1, CYP11B1 (steroid 11 β-hydroxylase) (Homo sapiens, UniProt P15538); test: Cortisol cell secretion in NCI-H295R cells (in vitro inhibitory activity for CYP11B1); format: cell-based; conditions: compound at 1 μM
T1 construct: the NCI-H295R cells have CYP11B1 (steroid 11 β-hydroxylase); host or cells: NCI-H295R
T1 sequence (P15538 25-503): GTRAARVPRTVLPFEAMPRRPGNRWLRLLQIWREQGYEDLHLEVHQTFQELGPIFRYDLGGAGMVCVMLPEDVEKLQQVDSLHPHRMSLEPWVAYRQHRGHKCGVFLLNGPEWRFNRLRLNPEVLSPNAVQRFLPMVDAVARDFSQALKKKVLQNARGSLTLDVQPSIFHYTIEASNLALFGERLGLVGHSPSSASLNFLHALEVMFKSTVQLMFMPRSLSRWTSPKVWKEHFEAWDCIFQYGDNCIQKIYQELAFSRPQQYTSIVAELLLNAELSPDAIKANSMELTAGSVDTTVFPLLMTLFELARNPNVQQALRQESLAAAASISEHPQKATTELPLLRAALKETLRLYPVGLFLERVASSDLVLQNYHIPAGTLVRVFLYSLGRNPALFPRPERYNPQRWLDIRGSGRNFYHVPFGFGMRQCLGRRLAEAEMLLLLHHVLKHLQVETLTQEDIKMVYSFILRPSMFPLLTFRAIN
From the text: The in vitro inhibitory activities for CYP11B1 can be determined by the following assay.
The cell line NCI-H295R was originally isolated from an adrenocortical carcinoma and has been characterized in the literature through the stimulable secretion of steroid hormones and the presence of the enzymes essential for steroidogenesis. Thus, the NCI-H295R cells have CYP11B1 (steroid 11 β-hydroxylase). The cells show the physiological property of zonally undifferentiated human fetal adrenocortical cells which, however, have the capacity to produce the steroid hormones which are formed in the three, phenotypically distinguishable zones in the adult adrenal cortex.
The NCI-H295R cells (American Type Culture Collection, ATCC, Rockville, Md., USA) are grown in Dulbeoco's Modified Eagle'Ham F-12 Medium (DME/F12), which has been supplemented with Ulroser SF Serum (Soprachem, Cergy-Saint-Christophe, France), insulin, transferrin, selenite (I-T-S, Becton Dickinson Biosiences, Franklin lakes, N.J., USA) and antibiotics in 75 cm^2 cell culture vessels at 37° C. and in a 95% air-5% carbon dioxide atmosphere. The cells are subsequently transferred for colony formation into a 24-well incubation vessel. They are cultivated there in DME/F12 medium, which is now supplemented with 0.1% bovine serum instead of Ultroser SF for 24 hours. The experiment is initiated by cultivating the cells in DME/F12 medium which is supplemented with 0.1% bovine serum albumin and test compound, in the presence or absence of cell stimulants, for 72 hours. The test substance is added in a concentration range from 0.2 nanomolar to […]. Cell stimulants which can be used are angiotensin II ([…] or 100 nanomolar), potassium ions (16 millimolar), forskolin (10 micromolar) or a combination of two stimulants.
The excretion of aldosterone, cortisol, corticosterone and estradiol/estrone into the culture medium can be detected and quantified by commercially available, specific monoclonal antibodies in radioimmunoassays in accordance with the manufacturer's instructions.
(§1) Inhibition of the release of certain steroids can be used as a measure of the respective enzyme inhibition by the added test compounds. The dose-dependent inhibition of enzymatic activity by a compound is calculated by means of an inhibition plot which is characterized by an IC50.
The inhibition activity of CYP11B1 production can also be expressed in percentage inhibition (% inhibition) at a given concentration (e.g. % inhibition at 1 μM), which is the cortisol level when cell is treated with the given concentration of a compound of the invention (e.g. concentration of 1 μM) versus the cortisol excretion when cell is free of the compound of the invention. % inhibition cortisol production=[(Y′−X′)/Y′]×100 wherein X′ is the level of cortisol when the cell is treated with a compound of Formula I; and Y′ is the level of cortisol when the cell is free of compound of Formula I.

aldosterone synthase = target: T2, aldosterone synthase (Homo sapiens, UniProt P19099); test: Aldosterone cell secretion in Ang II-stimulated NCI-H295R cells (SPA with anti-aldosterone antibody); format: cell-based; conditions: human adrenocortical carcinoma NCI-H295R cells, 1 μM Ang II, 24 h
T2 construct: host or cells: NCI-H295R
T2 sequence (P19099 25-503): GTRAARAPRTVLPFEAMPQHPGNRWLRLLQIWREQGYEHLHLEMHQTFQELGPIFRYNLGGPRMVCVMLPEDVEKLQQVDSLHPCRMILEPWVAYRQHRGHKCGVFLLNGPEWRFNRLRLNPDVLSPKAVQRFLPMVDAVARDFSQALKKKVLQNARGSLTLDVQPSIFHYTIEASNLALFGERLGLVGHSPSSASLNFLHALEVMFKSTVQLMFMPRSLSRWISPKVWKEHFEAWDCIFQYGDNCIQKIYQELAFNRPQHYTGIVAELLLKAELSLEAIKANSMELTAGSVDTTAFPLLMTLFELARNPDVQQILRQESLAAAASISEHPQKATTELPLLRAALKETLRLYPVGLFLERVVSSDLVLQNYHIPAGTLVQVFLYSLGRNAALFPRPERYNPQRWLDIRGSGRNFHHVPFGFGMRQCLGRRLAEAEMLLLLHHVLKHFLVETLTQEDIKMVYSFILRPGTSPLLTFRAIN
From the text: In particular, the aldosterone synthase inhibitory activities in vitro can be determined by the following assay.
Human adrenocortical carcinoma NCI-H295R cell line was obtained from American Type Culture Collection (Manassas, Va.). Insulin/transferrin/selenium (ITS)-A supplement (100×), DMEM/F-12, antibiotic/antimycotic (100×), and fetal bovine serum (FBS) were purchased from Invitrogen (Carlsbad, Calif.). Anti-mouse PVT scintillation proximity assay (SPA) beads and NBS 96-well plates were obtained from GE Health Sciences (Piscataway, N.J.) and Corning (Acton, Mass.), respectively. Solid black 96-well flat bottom plates were purchased from Costar (Corning, N.Y.). Aldosterone and angiotensin (Ang II) were purchased from Sigma (St. Louis, Mo.). D-[1,2,6,7-^3H(N)]aldosterone was acquired from PerkinElmer (Boston, Mass.). Nu-serum was a product of BD Biosciences (Franklin Lakes, N.J.).
On the following day, cells are rinsed with 100 μL of phosphate-buffered saline (PBS) and incubated with 100 μL of treatment medium containing 1 μM Ang II and a compound at different concentrations in quadruplicate wells at 37° C. for 24 h. At the end of incubation, 50 μL of medium is withdrawn from each well for measurement of aldosterone production by an SPA using mouse anti-aldosterone monoclonal antibodies.
Measurement of aldosterone activity can also be performed using a 96-well plate format. […] Anti-mouse PVT SPA beads (50 μL) are then added to each well and incubated overnight at room temperature prior to counting in a Microbeta plate counter. The amount of aldosterone in each sample is calculated by comparing with a standard curve generated using known quantities of the hormone.
as §1
The inhibition plot is calculated by fitting a 4-parameter logistic function to the raw data points using the least squares method. The equation of the 4-parameter logistic function is calculated as follows: Y=(d−a)/((1+(x/c)b))+a, where: a=minimum data level, b=gradient, I […], d=maximum data level, x=inhibitor concentration.

Structure (SMILES)	inhibition at 1 µM ([1]; NCI-H295R)	IC50 (aldosterone synthase)	also measured
CCS(=O)(=O)NC(C)c1cncc(-c2ccc(C#N)c(OC)c2)c1 (single isomer, unassigned) [N-(1-(5-(4-cyano-3-methoxyphenyl)pyridin-3-yl)ethyl)ethanesu] [N-(1-(5-(4-cyano-3-methoxyphenyl)pyridin-3-yl)ethyl)ethanesulfonamide]	–	–	Cortisol cell secretion (% inhibition @ 1 μM) [1]: 27%
CCS(=O)(=O)NC(c1cncc(-c2ccc(C#N)c(OC)c2)c1)C1CC1 (single isomer, unassigned) [N-((5-(4-cyano-3-methoxyphenyl)pyridin-3-yl)(cyclopropyl)met] [N-(5-(4-cyano-3-methoxyphenyl)pyridin-3-yl)(cyclopropyl)methyl)ethanesulfonamide]	–	–	Cortisol cell secretion (% inhibition @ 1 μM) [1]: 44%
CCS(=O)(=O)NC(C)(C)c1cncc(-c2ccc(C#N)c(Cl)c2)c1 [N-(2-(5-(3-chloro-4-cyanophenyl)pyridin-3-yl)propan-2-yl)ethanesulfonamide]	66%	99 nM	–
CCS(=O)(=O)NC(C)c1cncc(-c2ccc(C#N)c(Cl)c2)c1 (single isomer, unassigned) [N-(1-(5-(3-chloro-4-cyanophenyl)pyridin-3-yl)ethyl)ethanesulfonamide]	53%	–	IC50 (aldosterone synthase; Enantiomer 1): 49 nM; IC50 (aldosterone synthase; Enantiomer 2): 74 nM
CCS(=O)(=O)NC(C)c1cncc(-c2ccc(C#N)c(OC)c2)c1 (single isomer, unassigned) [N-(1-(5-(4-cyano-3-methoxyphenyl)pyridin-3-yl)ethyl)ethanesulfonamide]	38%	–	IC50 (aldosterone synthase; Enantiomer 1): 64 nM; IC50 (aldosterone synthase; Enantiomer 2): 140 nM
CCS(=O)(=O)NCc1cncc(-c2cc3ccc(Cl)nc3n2C)c1 [Ethanesulfonic acid [5-(6-chloro-1-methyl-1H-pyrrolo[2,3-b]pyridin-2-yl)-pyridin-3-ylmethyl]-amide]	–	8 nM	inhibition at 1 µM [1]: 40%
CCCC(NS(=O)(=O)CC)c1cncc(-c2ccc(C#N)c(Cl)c2)c1 (racemic) [N-(1-(5-(3-chloro-4-cyanophenyl)pyridin-3-yl)butyl)ethanesulfonamide: Racemate, N-(1-(5-(3-chloro-4-cyanophenyl)pyridin-3-yl)butyl)ethanesulfonamide]	25%	132 nM	–
CCS(=O)(=O)NCc1cncc(-c2cc3cnc(Cl)cc3n2C)c1 [Ethanesulfonic acid [5-(6-chloro-1-methyl-1H-pyrrolo[3,2-c]pyridin-2-yl)-pyridin-3-ylmethyl]-amide]	–	165 nM	inhibition at 1 µM [1]: 15%
CCS(=O)(=O)N[C@@H](c1cncc(-c2ccc(C#N)c(Cl)c2)c1)C1CC1 [(R)-N-((5-(3-chloro-4-cyanophenyl)pyridin-3-yl)(cyclopropyl)methyl)ethanesulfonamide]	29%	56 nM	–
CCS(=O)(=O)N[C@H](c1cncc(-c2ccc(C#N)c(Cl)c2)c1)C1CC1 [(S)-N-((5-(3-chloro-4-cyanophenyl)pyridin-3-yl)(cyclopropyl)methyl)ethanesulfonamide]	38%	24 nM	–
CCS(=O)(=O)NC(C)c1cncc(-c2ccc(C#N)c(Cl)c2)c1 (single isomer, unassigned) [N-(1-(5-(3-chloro-4-cyanophenyl)pyridin-3-yl)ethyl)ethanesul] [N-(1-(5-(3-chloro-4-cyanophenyl)pyridin-3-yl)ethyl)ethanesulfonamide]	–	–	Cortisol cell secretion (% inhibition @ 1 μM) [1]: 50%

Continued, in another order:

inhibition at 1 µM ([1]; NCI-H295R)	Structure (SMILES)	IC50 (aldosterone synthase)	also measured
78%	CCc1ccc(S(=O)(=O)Nc2cncc(-c3ccc(C#N)c(Cl)c3)c2)cc1 [N-[5-(3-Chloro-4-cyano-phenyl)-pyridin-3-yl]-4-ethyl-benzene-sulfonamide]	6 nM	–
25%	CCS(=O)(=O)NC(c1cncc(-c2ccc(C#N)c(OC)c2)c1)C1CC1 (single isomer, unassigned) [N-(5-(4-cyano-3-methoxyphenyl)pyridin-3-yl)(cyclopropyl)methyl)ethanesulfonamide]	–	IC50 (aldosterone synthase; Enantiomer 1): 111 nM; IC50 (aldosterone synthase; Enantiomer 2): 41 nM
74.5%	COc1ccc(S(=O)(=O)Nc2cncc(-c3ccc(C#N)c(Cl)c3)c2)cc1 [N-[5-(3-Chloro-4-cyano-phenyl)-pyridin-3-yl]-4-methoxy-benzene-sulfonamide]	9 nM	–
23%	CCS(=O)(=O)NC(c1ccc(F)cc1)c1cncc(-c2ccc(C#N)c(C)c2)c1 (stereo not drawn) [N-(5-(4-cyano-3-methylphenyl)pyridin-3-yl)(4-fluorophenyl)methyl)ethane-sulfonamide]	121 nM	–
32%	COc1cc(-c2cncc(NS(=O)(=O)C3CC3)c2)ccc1C#N [N-(5-(4-cyano-3-methoxyphenyl)pyridin-3-yl)cyclopropane-sulfonamide]	77 nM	–
21%	CCS(=O)(=O)NC(c1cncc(-c2ccc(F)c(Cl)c2)c1)C1CC1 (stereo not drawn) [N-((5-(3-chloro-4-fluorophenyl)pyridin-3-yl)(cyclopropyl)methyl)-ethanesulfonamide]	22 nM	–
24%	CCS(=O)(=O)NCc1cncc(-c2nc3ccc(Cl)cc3n2C)c1 [N-(5-(6-chloro-1-methyl-1H-benzo[d]imidazol-2-yl)pyridin-3-yl)methyl)ethanesulfonamide]	97 nM	–
